Values of other authors as cited in patent publication US9814782B2, “Modified antibody in which motif comprising cysteine residue is bound, modified antibody-drug conjugate comprising the modified antibody, and production method for same” (Alteogen Inc., priority 2012, dated 2017).

Conditions: known value; read-out: IC50 value in a cell proliferation inhibition assay

**Q.** Which IC50 does the source give for Auristatin here?
**A.** Its IC50 is 0.2 to 0.3 nM.
